Experimental data reported in PubChem BioAssay (NCI).
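In this assay, cells in 96-well plates receive the compound at five concentrations for 48 hours. Endpoints are linearly interpolated between the surrounding concentrations. Abbreviation: GI50, concentration required for 50% inhibition of growth. TGI: concentration producing complete growth inhibition.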

Legend:
Test in all cases: inhibition of tumour cell growth, NCI panel, 48 h
OVCAR-8 ovarian = system: OVCAR-8 ovarian
HCT-116 colon = system: HCT-116 colon
SK-MEL-2 melanoma = system: SK-MEL-2 melanoma
OVCAR-4 ovarian = system: OVCAR-4 ovarian
SR leukemia = system: SR leukemia
HT29 colon = system: HT29 colon
SK-MEL-28 melanoma = system: SK-MEL-28 melanoma
BT-549 breast = system: BT-549 breast
U251 CNS = system: U251 CNS
NCI-H23 lung = system: NCI-H23 lung
SF-295 CNS = system: SF-295 CNS
OVCAR-3 ovarian = system: OVCAR-3 ovarian
UACC-62 melanoma = system: UACC-62 melanoma
UO-31 renal = system: UO-31 renal
RPMI-8226 leukemia = system: RPMI-8226 leukemia
HL-60(TB) leukemia = system: HL-60(TB) leukemia
HCC-2998 colon = system: HCC-2998 colon
KM12 colon = system: KM12 colon
MALME-3M melanoma = system: MALME-3M melanoma
SF-539 CNS = system: SF-539 CNS
A549 NSCLC = system: A549 NSCLC
OVCAR-5 ovarian = system: OVCAR-5 ovarian
HOP-62 NSCLC = system: HOP-62 NSCLC
HS 578T breast = system: HS 578T breast
LOX IMVI melanoma = system: LOX IMVI melanoma
HCT-15 colon = system: HCT-15 colon
SN12C renal = system: SN12C renal
RXF 393 renal = system: RXF 393 renal
CAKI-1 renal = system: CAKI-1 renal
SK-OV-3 ovarian = system: SK-OV-3 ovarian
A498 renal = system: A498 renal
CCRF-CEM leukemia = system: CCRF-CEM leukemia
COLO 205 colon = system: COLO 205 colon
EKVX NSCLC = system: EKVX NSCLC
SK-MEL-5 melanoma = system: SK-MEL-5 melanoma
ACHN renal = system: ACHN renal
786-0 renal = system: 786-0 renal
IGROV1 ovarian = system: IGROV1 ovarian
K-562 leukemia = system: K-562 leukemia
T-47D breast = system: T-47D breast
HOP-92 NSCLC = system: HOP-92 NSCLC
SNB-19 CNS = system: SNB-19 CNS
SF-268 CNS = system: SF-268 CNS
NCI/ADR-RES ovarian = system: NCI/ADR-RES ovarian
NCI-H522 lung = system: NCI-H522 lung
MCF7 breast = system: MCF7 breast
TK-10 renal = system: TK-10 renal
NCI-H460 lung = system: NCI-H460 lung
PC-3 prostate = system: PC-3 prostate
MOLT-4 leukemia = system: MOLT-4 leukemia
UACC-257 melanoma = system: UACC-257 melanoma
DU-145 prostate = system: DU-145 prostate
MDA-MB-435 = system: MDA-MB-435
SNB-75 CNS = system: SNB-75 CNS
MDA-MB-231 breast = system: MDA-MB-231 breast
SW-620 colon = system: SW-620 colon
M14 melanoma = system: M14 melanoma
NCI-H226 lung = system: NCI-H226 lung

## CCOC(=O)c1ccc2c(c1)nc(-c1ccc(Cl)cc1)n2-c1cc(C(C)(C)C)[nH]n1
OVCAR-8 ovarian
  GI50: 2550 nM
  TGI: 12.7 µM
HCT-116 colon
  GI50: 3.12 µM
  TGI: 29.9 µM
SK-MEL-2 melanoma
  GI50: 1.93 µM
  TGI: 4.4 µM
OVCAR-4 ovarian
  GI50: 3.64 µM
  TGI: > 100 µM
SR leukemia
  GI50: 635 nM
  TGI: 8.16 µM
HT29 colon
  GI50: 2790 nM
  TGI: 7.17 µM
SK-MEL-28 melanoma
  GI50: 2490 nM
  TGI: 12.2 µM
BT-549 breast
  GI50: 2.88 µM
  TGI: 8.4 µM
U251 CNS
  GI50: 3.04 µM
  TGI: > 100 µM
NCI-H23 lung
  GI50: 2.72 µM
  TGI: > 100 µM
SF-295 CNS
  GI50: 2620 nM
  TGI: 11.4 µM
OVCAR-3 ovarian
  GI50: 2.05 µM
  TGI: 5.65 µM
UACC-62 melanoma
  GI50: 1670 nM
  TGI: 4 µM
UO-31 renal
  GI50: 2760 nM
  TGI: 45.7 µM
RPMI-8226 leukemia
  GI50: 2990 nM
  TGI: 22.9 µM
HL-60(TB) leukemia
  GI50: 3.65 µM
  TGI: 9.2 µM
HCC-2998 colon
  GI50: 3030 nM
  TGI: 16.2 µM
KM12 colon
  GI50: 2.78 µM
  TGI: 14.2 µM
MALME-3M melanoma
  GI50: 2.75 µM
  TGI: 9.18 µM
SF-539 CNS
  GI50: 2.16 µM
  TGI: 4.99 µM
A549 NSCLC
  GI50: 3.13 µM
  TGI: > 100 µM
OVCAR-5 ovarian
  GI50: 3.68 µM
  TGI: > 100 µM
HOP-62 NSCLC
  GI50: 3.69 µM
  TGI: > 100 µM
HS 578T breast
  GI50: 2.76 µM
  TGI: 8.57 µM
LOX IMVI melanoma
  GI50: 2.73 µM
  TGI: 10.8 µM
HCT-15 colon
  GI50: 3.27 µM
  TGI: > 100 µM
SN12C renal
  GI50: 3.33 µM
  TGI: 40.6 µM
RXF 393 renal
  GI50: 1.81 µM
  TGI: 5.87 µM
CAKI-1 renal
  GI50: 2.77 µM
  TGI: > 100 µM
SK-OV-3 ovarian
  GI50: 3.43 µM
  TGI: 36.9 µM
A498 renal
  GI50: 2.19 µM
  TGI: 6.51 µM
CCRF-CEM leukemia
  GI50: 3.06 µM
  TGI: 34.1 µM
COLO 205 colon
  GI50: 2.23 µM
  TGI: 4.75 µM
EKVX NSCLC
  GI50: 3.02 µM
  TGI: > 100 µM
SK-MEL-5 melanoma
  GI50: 1330 nM
  TGI: 3.39 µM
ACHN renal
  GI50: 3.28 µM
  TGI: 10.1 µM
786-0 renal
  GI50: 3.17 µM
  TGI: > 100 µM
IGROV1 ovarian
  GI50: 3.77 µM
  TGI: > 100 µM
K-562 leukemia
  GI50: 2.72 µM
  TGI: 16.1 µM
T-47D breast
  GI50: 3780 nM
  TGI: > 100 µM
HOP-92 NSCLC
  GI50: 1020 nM
  TGI: 4.79 µM
SNB-19 CNS
  GI50: 3.32 µM
  TGI: > 100 µM
SF-268 CNS
  GI50: 3.13 µM
  TGI: 13.8 µM
NCI/ADR-RES ovarian
  GI50: 2.13 µM
  TGI: 6.65 µM
NCI-H522 lung
  GI50: 2520 nM
  TGI: 6.66 µM
MCF7 breast
  GI50: 2780 nM
  TGI: 12.2 µM
TK-10 renal
  GI50: 3.62 µM
  TGI: > 100 µM
NCI-H460 lung
  GI50: 2.94 µM
  TGI: 8.02 µM
PC-3 prostate
  GI50: 2.82 µM
  TGI: > 100 µM
MOLT-4 leukemia
  GI50: 3.28 µM
  TGI: 30.4 µM
UACC-257 melanoma
  GI50: 3.41 µM
  TGI: > 100 µM
DU-145 prostate
  GI50: 2.85 µM
MDA-MB-435
  GI50: 0.717 µM
  TGI: 7.1 µM
SNB-75 CNS
  GI50: 2.53 µM
  TGI: > 100 µM
MDA-MB-231 breast
  GI50: 4.2 µM
  TGI: 40.8 µM

## Cc1nc2ccc(Nc3nc(Cl)nc(Nc4ccc(F)cc4)n3)cc2n1Cc1ccccc1
OVCAR-8 ovarian
  GI50: 3250 nM
  TGI: 14.1 µM
HCT-116 colon
  GI50: 3.56 µM
  TGI: 13.6 µM
SK-MEL-2 melanoma
  GI50: 4.15 µM
  TGI: 15 µM
SR leukemia
  GI50: 3790 nM
  TGI: 39.5 µM
SK-MEL-28 melanoma
  GI50: 3150 nM
  TGI: 10.5 µM
BT-549 breast
  GI50: 4 µM
  TGI: 18.8 µM
NCI-H23 lung
  GI50: 7.16 µM
  TGI: 25.2 µM
SF-295 CNS
  GI50: 1900 nM
  TGI: 4.53 µM
SW-620 colon
  GI50: 4.95 µM
  TGI: 35 µM
M14 melanoma
  GI50: 5.54 µM
  TGI: 22 µM
OVCAR-3 ovarian
  GI50: 4.06 µM
  TGI: 15 µM
UACC-62 melanoma
  GI50: 3060 nM
  TGI: 12.9 µM
UO-31 renal
  GI50: 2850 nM
  TGI: 12.2 µM
RPMI-8226 leukemia
  GI50: 2050 nM
  TGI: 5.09 µM
HL-60(TB) leukemia
  GI50: 3.02 µM
  TGI: 7.6 µM
HCC-2998 colon
  GI50: 2600 nM
  TGI: 5.96 µM
KM12 colon
  GI50: 4.25 µM
  TGI: 17.6 µM
MALME-3M melanoma
  GI50: 11.4 µM
  TGI: 24.6 µM
SF-539 CNS
  GI50: 4.53 µM
  TGI: 17.4 µM
A549 NSCLC
  GI50: 11.3 µM
  TGI: 30.9 µM
OVCAR-5 ovarian
  GI50: 14.7 µM
  TGI: 44.1 µM
HOP-62 NSCLC
  GI50: 10.7 µM
  TGI: 30.4 µM
HS 578T breast
  GI50: 10.9 µM
  TGI: > 100 µM
LOX IMVI melanoma
  GI50: 3.59 µM
  TGI: 14.1 µM
HCT-15 colon
  GI50: 2.92 µM
  TGI: 10.4 µM
SN12C renal
  GI50: 5.22 µM
  TGI: 38.3 µM
RXF 393 renal
  GI50: 4.45 µM
  TGI: 21.5 µM
CAKI-1 renal
  GI50: 7.94 µM
  TGI: 35.2 µM
SK-OV-3 ovarian
  GI50: 18.1 µM
  TGI: 66.8 µM
A498 renal
  GI50: 13.2 µM
  TGI: 41 µM
CCRF-CEM leukemia
  GI50: 3.85 µM
  TGI: > 100 µM
COLO 205 colon
  GI50: 11.2 µM
  TGI: 26.5 µM
SK-MEL-5 melanoma
  GI50: 4190 nM
  TGI: 15.1 µM
ACHN renal
  GI50: 3 µM
  TGI: 10.4 µM
786-0 renal
  GI50: 5.18 µM
  TGI: 37 µM
IGROV1 ovarian
  GI50: 4.4 µM
  TGI: 20.8 µM
K-562 leukemia
  GI50: 3.43 µM
  TGI: > 100 µM
T-47D breast
  GI50: 1810 nM
  TGI: 4.58 µM
HOP-92 NSCLC
  GI50: 2300 nM
  TGI: 9.23 µM
SNB-19 CNS
  GI50: 4.55 µM
  TGI: 26.9 µM
SF-268 CNS
  GI50: 10.8 µM
  TGI: 46.8 µM
NCI/ADR-RES ovarian
  GI50: 4.11 µM
  TGI: 18.5 µM
NCI-H522 lung
  GI50: 2510 nM
  TGI: 6.85 µM
MCF7 breast
  GI50: 2710 nM
  TGI: 12.4 µM
TK-10 renal
  GI50: 18.1 µM
  TGI: 44.4 µM
NCI-H460 lung
  GI50: 4.23 µM
  TGI: 17.8 µM
PC-3 prostate
  GI50: 7.11 µM
  TGI: 32.9 µM
MOLT-4 leukemia
  GI50: 3.92 µM
  TGI: 18.1 µM
UACC-257 melanoma
  GI50: 11.8 µM
  TGI: 28.9 µM
DU-145 prostate
  GI50: 9.44 µM
  TGI: 22.6 µM
NCI-H226 lung
  GI50: 4.14 µM
  TGI: 21.6 µM
MDA-MB-435
  GI50: 6.4 µM
  TGI: 23.1 µM
SNB-75 CNS
  GI50: 10.2 µM
  TGI: 26.2 µM
MDA-MB-231 breast
  GI50: 3.99 µM
  TGI: 20.4 µM
